Measurements reported in ChEMBL document CHEMBL5236571, “Dynamic Covalent Template-Guided Screen for Nucleic Acid-Targeting Agents” (J Med Chem, 2022).
Calls of active or inactive are those of the source. The rule behind the calls is not given here.

Legend:
r(CUG) repeat expansion [1] = test: Inhibition of d(CTG.CAG)90 transcription (unknown origin) assessed as inhibition of r(CUG)90 formation at 10 uM incubated for 3.5 hrs measured after 1.5 hrs in presence of T7 RNA polymerase by SDS-PAGE analysis relative to control; assay type: nucleic-acid assay; conditions: Homo sapiens, time 5.0 hrs
r(CUG) repeat expansion [2] = test: Inhibition of d(CTG.CAG)90 transcription (unknown origin) assessed as inhibition of r(CUG)90 formation incubated for 3.5 hrs measured after 1.5 hrs in presence of T7 RNA polymerase by SDS-PAGE analysis; assay type: nucleic-acid assay, Homo sapiens
r(CUG) repeat expansion [3] = test: Inhibition of d(CTG.CAG)90 transcription (unknown origin) assessed as inhibition of r(CUG)90 formation at 60 uM incubated for 3.5 hrs measured after 1.5 hrs in presence of T7 RNA polymerase by SDS-PAGE analysis; assay type: nucleic-acid assay; conditions: Homo sapiens, time 5.0 hrs

Row | SMILES | inhibition (r(CUG) repeat expansion [1]) [%] | IC50 (r(CUG) repeat expansion [2]) [µM] | inhibition (r(CUG) repeat expansion [3])
1 | COc1ccc2nc3cc(Cl)ccc3c(NC/C=N/CCCCNC(=O)c3cccc4c(NCCCCNc5nc(N)nc(N)n5)c5ccccc5nc34)c2c1 | 23.2 | 36.2 | 
2 | COc1ccc2nc3cc(Cl)ccc3c(NC/C=N/CCCCNc3nc(N)nc(NCCCC/N=C/c4ccc(CNc5nc(N)nc(N)n5)cc4)n3)c2c1 | 19.9 | 44 | 

The remaining lines, values ahead:

Row | inhibition (r(CUG) repeat expansion [1]) [%] | IC50 (r(CUG) repeat expansion [2]) [µM] | inhibition (r(CUG) repeat expansion [3]) | SMILES
3 | 21.3 | > 60 |  | N=C(NCc1ccc(N)cc1)c1ccc(C(=N)NCc2ccc(/N=C/c3ccc(/C=N/CCCCNc4nc(N)nc(NCCCCN)n4)cc3)cc2)cc1
4 | 34.8 | 25.9 | Active | N=C(NCCCCNc1nc(N)nc(NCc2ccc(/C=N/c3ccc(CNc4nc(N)nc(NCc5ccc(N)cc5)n4)cc3)cc2)n1)c1ccc(C(=N)NCCCCNc2nc(N)nc(NCc3ccc(CO)cc3)n2)cc1
5 | 13.9 | 34.2 |  | N=C(NCCCCNc1nc(N)nc(NCc2ccc(/C=N/CCCCn3cnc4c(N)ncnc43)cc2)n1)c1ccc(C(=N)NCCCCNc2nc(N)nc(NCc3ccc(/C=N/c4ccc(CNC(=N)c5ccc(C(=N)NCc6ccc(N)cc6)cc5)cc4)cc3)n2)cc1
